Reference: ChEMBL document CHEMBL4229439, “Design, synthesis and antimycobacterial activity of 3,5-dinitrobenzamide derivatives containing fused ring moieties” (2018)
Values after ≈ are worked out from the molar mass of the structure shown. Active and inactive are the calls of the source. The rule behind the calls is not given here.

Key:
[1] = system: Mycobacterium tuberculosis; assay: Antimycobacterial activity against isoniazid/rifampicin-resistant Mycobacterium tuberculosis isolate 16833 after 7 days by Alamar blue assay; format: functional; conditions: isolate 16833, 168 h
[2] = system: Mycobacterium tuberculosis; assay: Antimycobacterial activity against isoniazid/rifampicin-resistant Mycobacterium tuberculosis isolate 16995 after 7 days by Alamar blue assay; format: functional; conditions: isolate 16995, 168 h
[3] = system: Mycobacterium tuberculosis; assay: Antimycobacterial activity against isoniazid/rifampicin-resistant Mycobacterium tuberculosis isolate 16833 up to 10 ug/ml after 7 days by Alamar blue assay; format: functional, organism-based
[4] = system: Mycobacterium tuberculosis; assay: Antimycobacterial activity against isoniazid/rifampicin-resistant Mycobacterium tuberculosis isolate 16995 up to 10 ug/ml after 7 days by Alamar blue assay; format: functional, organism-based

Compound | MIC [1] [µg/mL] | MIC [2] [µg/mL] | Activity [3] | Activity [4]
O=C(NCc1ccc2c(c1)CCN(Cc1ccc(Cl)cc1)C2)c1cc([N+](=O)[O-])cc([N+](=O)[O-])c1 | 0.143 (≈ 0.297 µM) | 0.077 (≈ 0.16 µM) |  | 
O=C(NCc1ccc2c(c1)CCN(c1ccc(F)cc1)C2)c1cc([N+](=O)[O-])cc([N+](=O)[O-])c1 | 0.074 (≈ 0.164 µM) | 0.078 (≈ 0.173 µM) |  | 
O=C(NCc1ccc2c(c1)CN(Cc1ccc(C(F)(F)F)cc1)C2)c1cc([N+](=O)[O-])cc([N+](=O)[O-])c1 | 0.278 (≈ 0.556 µM) | 0.308 (≈ 0.615 µM) |  | 
O=C(NCc1ccc2c(c1)CCN(c1ccc(C(F)(F)F)cc1)C2)c1cc([N+](=O)[O-])cc([N+](=O)[O-])c1 | 0.152 (≈ 0.304 µM) | 0.302 (≈ 0.603 µM) |  | 
O=C(NCc1ccc2c(c1)CCN(Cc1cccc(F)c1)C2)c1cc([N+](=O)[O-])cc([N+](=O)[O-])c1 | 0.074 (≈ 0.159 µM) | 0.076 (≈ 0.164 µM) |  | 
O=C(NCc1ccc2c(c1)CN(Cc1ccc(F)cc1)C2)c1cc([N+](=O)[O-])cc([N+](=O)[O-])c1 | 0.073 (≈ 0.162 µM) | 0.115 (≈ 0.255 µM) |  | 
O=c1nc(N2CCN(CC3CCCCC3)CC2)sc2c([N+](=O)[O-])cc(C(F)(F)F)cc12 [MACOZINONE] | < 0.016 | < 0.016 |  | 
NNC(=O)c1ccncc1 [ISONIAZID] | > 40 | > 40 |  | 
O=C(NCc1ccc2c(c1)CN(Cc1ccc(OC(F)(F)F)cc1)C2)c1cc([N+](=O)[O-])cc([N+](=O)[O-])c1 | 0.565 (≈ 1.09 µM) | 0.61 (≈ 1.18 µM) |  | 
O=C(NCc1ccc2c(c1)CNC2)c1cc([N+](=O)[O-])cc([N+](=O)[O-])c1 | > 10 | > 10 | inactive | inactive
O=C(NCc1ccc2c(c1)CN(c1ccc(F)cc1)C2)c1cc([N+](=O)[O-])cc([N+](=O)[O-])c1 | 0.066 (≈ 0.151 µM) | 0.147 (≈ 0.337 µM) |  | 
CO[C@H]1/C=C/O[C@@]2(C)Oc3c(C)c(O)c4c(O)c(c(/C=N/N5CCN(C)CC5)c(O)c4c3C2=O)NC(=O)/C(C)=C\C=C\[C@H](C)[C@H](O)[C@@H](C)[C@@H](O)[C@@H](C)[C@H](OC(C)=O)[C@@H]1C [RIFAMPIN] | > 40 | > 40 |  | 
COc1ccc(CN2Cc3ccc(CNC(=O)c4cc([N+](=O)[O-])cc([N+](=O)[O-])c4)cc3C2)cc1 | 0.286 (≈ 0.618 µM) | 0.606 (≈ 1.31 µM) |  | 
